# “Also recorded” adds a separate entry of the source.
# Columns and labels:
# Assay type in all cases: cell-based
# Hela pTRE-LucIVS2 cells = assay: ALAMARBLUE toxicity assay of CPP-PNA705; conditions: 10 μM CPP-PNA705 conjugate, after 24 hours
# Experimental: CPP-PNA705 cytotoxicity was assessed using several methods known in the art. A Lactate Dehydrogenase (LDH) assay (FIG. 5A) measured the acute cytotoxicity and detects LDH released by cells because of membrane damage resulting from exposure to the CPPs. An ALAMARBLUE® assay (FIG. 5B) and a Bicinchoninic Acid (BCA) Assay (FIG. 5C) both measure the impact of exposure after 24 hours. In the ALAMARBLUE®, assay some reduction in metabolic activity was detected in Hela705 cells treated with 20 μM CPP-PNA705 concentrations for 1 hour.
# Hela pTRE-LucIVS2 cells were plated in 96-well plates at 10,000 cells/well. After 24 hours, cells were treated with CPP constructs for 1 Hr in sfDMEM at 37° C., washed in PBS, and allowed to recover for 24 hours in 100 μl complete media. 10 μl ALAMARBLUE® (ThermoFisher) was added to each well and cells were incubated fo4r 2 Hrs at 37° C. Reduction of ALAMARBLUE® was determined by fluorescence at […].
# [1] = test system: Hela pTRE-LucIVS2-705 cells; assay: PNA705 mediated luciferase splice correction (luminescence, RLU/μg protein)
# Experimental: To assess nuclear cargo delivery and splice correction, PNA705 (SEQ ID NO: 11) was used. Luciferase production was quantified at both the protein (FIG. 6) and mRNA levels (FIG. 7). To quantify functional luciferase levels following splice correction, Hela pLuc705 cells were treated with a 2× serial dilution starting at 5 μM of CPP-PNA705 for 30 minutes in serum free DMEM at 37° C., washed in PBS, and allowed to recover for 24 hours in complete media. To assess the impact of endosomal entrapment and subsequent lysosomal degradation, some cells were co-treated with the endosomal acidification inhibitor chloroquine (120 μM) along with 5 μM CPP-PNA705. Cell lysates were assayed for luciferase by luminescence. To control for total cell density, lysates were also analyzed for total protein by the BCA assay.
# Hela pTRE-LucIVS2-705 cells were seeded on flat-bottom 96-well plates at 10,000 cells per well in 200 μl complete DMEM. The following day, cells were washed in phosphate buffered saline and topped with premixed 50 μl 2× serum/phenol red free DMEM (Gibco)+50 μl peptide cleavage solution (ddH2O+peptide). Cells were transfected for 30 min at 37° C. with 5% CO2. The transfection solution was removed, cells were washed with PBS, and topped with 100 μl complete DMEM. The next day (24 hour recovery) cells were washed in PBS and lysed in 20 μl reporter lysis buffer (Promega E4030) following the manufacturers protocol. 10 μl of the lysate was removed and total protein concentration was determined using the bicinchoninic acid assay (Pierce BCA Protein Assay-ThermoFisher 23225). The 96-well plate containing the remaining 10 μl lysate was analyzed for luminescence using the Luciferase Assay System (Promega E1500) on a BioTek SYNERGY™ 2 plate reader with injector ports. Data was expressed as Relative Luminescence Units/μg Protein (RLU/μg Protein) and positive wells were defined as those whose RLU/μg Protein values exceeded the average for the plate by at least three standard deviations. […]
# [2] = test system: HeLa, RAW264.7, HepG2, and MCF-7 cells; assay: TAMRA delivery assay (flow cytometry, confocal microscopy); conditions: 0.5 μM CPP-TA + 4.5 μM CPP-C, 30 minutes at 4° C., 22° C., or 37° C.
# Experimental: To determine the effect of the PNA cargo on delivery, we labeled CPPs, lacking the PNA705 cargo, with the fluorophore TAMRA on a C-terminal cysteine residue (CPP-TA) and measured delivery to multiple cell types. TAMRA-labelled CPPs, mixed with unlabeled CPPs at a 1:10 ratio in serum-free DMEM for a final concentration of 5 μM total peptide, was added to HeLa, RAW264.7, HepG2, and MCF-7 cells in 12-well cell culture plates and incubated for 30 minutes at 4° C., 22° C., or 37° C. prior to flow cytometric analysis (FIGS. 9-16). […] Delivery of TAMRA was verified by confocal microscopy for each cell type.
# Hela, RAW264.7, HCT116, HepG2, and MCF-7 cells were plated in 12-well plates at 100,000 cells/well. After 24 hours, cells were gently washed in PBS, topped with 500 μl of CPP-TA solution containing 0.5 μM CPP-TA+4.5 uM CPP-C in sfDMEM without phenol red, and incubated for 30 min at either 4° C., 23° C., or 37° C. The incubation solution was aspirated and cells were treated with 100 μl 0.025% Trypsin for 3 minutes at 23° C. 500 μl DMEM containing 2% FBS, 125 nM Sytox Green, and 20 mM HEPES was used to suspend the cells. Cells were transferred to a filter-topped flow cytometry tube and analyzed on a BD™ LSR II flow cytometer. Cells displaying a normal morphology were gated and first analyzed for GFP fluorescence using the 488 nM laser. GFP negative cells were used to generate a histogram of TAMRA fluorescence, measured with the 543 nM laser.
# Cells were treated as described above for the TAMRA delivery assay and immediately imaged to avoid artifacts resulting from fixation. The distribution of TAMRA and Sytox Green was analyzed using a confocal scanning Nikon Eclipse Ti2 inverted microscope using a 40× oil-immersion objective. Sytox Green was excited using the 488 nM laser and TAMRA was excited using the 543 nM laser.
# [3] = test system: Hela cells stably transfected with mCherry and GFP1-10; assay: Split GFP assay (GFP-11 delivery); conditions: all concentrations and temperatures studied
# Experimental: To test the ability of CPPs to deliver other cargoes, specifically a protease-sensitive peptide cargo, we modified the well-known split-GFP assay. CPPs were tested for the ability to deliver the polar 16-residue GFP-11 peptide across the membrane barrier. This peptide rescues the fluorescence of the cytosolic endogenous, non-fluorescent GFP1-10 protein. Here, we stably transfected Hela cells with a plasmid containing the full length mCherry and the non-fluorescent GFP1-10. Following incubation with CPP-GFP-11 constructs at multiple concentrations and temperatures for 30 minutes in serum free DMEM, cells were analyzed by flow cytometry for mCherry and GFP fluorescence (FIG. 17). Live cells expressing mCherry (˜50% of the total cells) were gated and their GFP fluorescence was analyzed. Unlike the luciferase splice correction assay where a single corrected mRNA transcript serves as template for many molecules of functional luciferase, the split GFP assay is stoichiometric; a single GFP-11 peptide can bind to a single GFP1-10 protein producing a finite fluorescent response.
# Hela cells were transfected with p_mCherry-GFP1-10 (Addgene plasmid #78591) using LIPOFECTAMINE® 3000 (ThermoFisher). Single mCherry positive cells were sorted into 96-well plates using a BD™ FACSARIA™ cell sorter and colonies were maintained under G418 selection at […]. Stably transfected cells were plated in 12-well plates at 100,000 cells/well and grown overnight in complete DMEM. Cells were washed in PBS and incubated in 500 μl of CPP-GFP-11 solution at variable concentrations at 23° C. and 37° C. for 30 minutes. The CPP-GFP-11 solution was aspirated and 100 μl of 0.025% trypsin solution was added to each well. After detachment, cells were suspended in 500 μL of PBS+2% FBS and 20 mM HEPES. Cells were analyzed using a BD™ LSRII flow cytometer. Cells displaying a normal morphology were gated and first analyzed for mCherry fluorescence using the 543 nM laser. mCherry+ cells were used to generate a histogram of GFP fluorescence measured with the 488 nM laser.
# P. aeruginosa biofilms = assay: Activity against P. aeruginosa biofilms; conditions: 25 μM
# Experimental: Bacterial biofilm formation on implanted medical devices is a serious medical problem because these biofilms can lead to life-threatening systemic infections. We tested selected peptides and rationally designed variants against biofilms formed by P. aeruginosa. […] D-NOGCON reduces viable bacteria by 3.6 logs ( 1/3000 reduction) at 25 μM, while the best conventional antibiotic, Ciprofloxacin, reduced viable bacteria by only 1.7 logs ( 1/55 reduction) at 25 μM.
Compound,reduction in metabolic activity (Hela pTRE-LucIVS2 cells),"efficiency of PNA705 delivery in cell culture (words, rank order) [1]","TAMRA delivery (words, rank order) [2]",GFP-11 delivery [3],reduction of viable bacteria in biofilm (P. aeruginosa biofilms)
RRKKIWFRRLRMK [CPP-4],little effect,successfully delivers PNA705,CPP-2»CPP-3=CPP-1>CPP-4>TAT=penetratin; also recorded: does not deliver GFP-11 or TAMRA significantly,does not deliver GFP-11 or TAMRA significantly,–
RKKRWFRRRRPKWKK [CPP-1],20%,most efficient at PNA delivery,CPP-2»CPP-3=CPP-1>CPP-4>TAT=penetratin,deliver GFP-11 to more cells than Tat and penetratin; also recorded: most efficient at GFP-11 delivery,–
"RRRRRRRRR [Arg9, reference compound]",–,much better than Tat,–,–,–
"O=C(O)c1cn(C2CC2)c2cc(N3CCNCC3)c(F)cc2c1=O [Ciprofloxacin, reference compound]",–,–,–,–,1.7 logs

# Reference: patent publication US11266743B2, “Peptide compositions and methods of use thereof” (priority 2017, dated 2022)
